Test results taken from patent publication US8003630B2, “Combinatorial therapies for the treatment of neoplasias using the opioid growth factor receptor” (The Penn State Research Foundation, priority 2004, dated 2011).

Tests used:
OGFr = molecular target: T1, OGFr (Homo sapiens, UniProt Q9NZT2); test: Receptor binding analysis of OGFr in SCC-1 tumors from treated mice; details: OGFr in SCC-1 tumors from mice of the treatment group; means ± SEM
T1 construct: Tumor tissues from some mice in each treatment group were removed at the time of death; from tissue; host or cells: SCC-1 squamous cell carcinoma xenograft tumors grown subcutaneously in nude mice
T1 sequence (Q9NZT2 1-677): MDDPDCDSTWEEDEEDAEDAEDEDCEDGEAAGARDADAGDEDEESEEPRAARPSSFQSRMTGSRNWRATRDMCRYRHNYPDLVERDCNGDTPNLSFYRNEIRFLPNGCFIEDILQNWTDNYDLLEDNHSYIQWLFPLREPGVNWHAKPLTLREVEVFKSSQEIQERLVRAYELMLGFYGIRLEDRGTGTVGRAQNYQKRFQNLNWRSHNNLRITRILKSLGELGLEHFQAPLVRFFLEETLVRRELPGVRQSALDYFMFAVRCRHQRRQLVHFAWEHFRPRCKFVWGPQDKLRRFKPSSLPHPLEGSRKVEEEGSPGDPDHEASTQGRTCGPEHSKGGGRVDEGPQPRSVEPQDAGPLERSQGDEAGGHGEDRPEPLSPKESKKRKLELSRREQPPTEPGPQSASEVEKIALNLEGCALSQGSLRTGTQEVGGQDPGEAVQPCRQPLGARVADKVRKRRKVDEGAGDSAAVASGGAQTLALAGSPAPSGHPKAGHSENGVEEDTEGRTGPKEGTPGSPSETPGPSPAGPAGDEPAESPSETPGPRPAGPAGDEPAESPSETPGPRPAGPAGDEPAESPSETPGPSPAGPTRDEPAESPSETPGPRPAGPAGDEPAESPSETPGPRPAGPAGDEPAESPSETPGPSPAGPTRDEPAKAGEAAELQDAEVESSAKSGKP
Description: Tumor tissues from some mice in each treatment group were removed at the time of death, washed free of blood and connective tissue, and immediately frozen in liquid nitrogen. Tissues were assayed following the procedures published previously [ 16]. Saturation binding isotherms were generated using GraphPad Prism software; binding affinity (Kd) and capacity (Bmax) values were provided by the computer software.

SCC-1 cells [1] = test: Cell proliferation assays of SCC-1 cells (MTS or cell counting), Example 8; format: cell-based, human; details: for rates of growth over the 4 day period: slopes of growth curves; for difference in cell number between reversal group and group continuing drug exposure: within 48 hr after withdrawal
Description: The UM-SCC-1 cell line (SCC-1) was derived from a well-differentiated recurrent squamous cell carcinoma in the floor of the mouth of a person (25). This cell line was obtained from The University of Michigan, Cancer Research Laboratory (Thomas E. Carey, Ph.D., Director). CAL-27 human squamous cell carcinoma cell line, derived from a poorly differentiated carcinoma of the tongue in a person ([…]), was obtained from the American Type Culture Collection (Manassas, Va.). Both cell lines were grown in Dulbecco's MEM (modified) media supplemented with 10% fetal calf serum, 1.2% sodium bicarbonate, and antibiotics (5,000 Units/ml penicillin, 5 mg/ml streptomycin, 10 mg/ml neomycin). The cell cultures were maintained in a humidified atmosphere of 7% CO2/93% air at 37° C.
Cells were seeded at equivalent amounts into either 6-well or 96-well plates (Falcon) and counted 24 hr later to determine plating efficiency.
The dosage of carboplatin selected was based on previous reports (27, 28), as well as preliminary studies in our laboratory.
Cell number was recorded either by using the MTS proliferation bioassay (Cell Titer 96 One Solution, Promega, Madison, Wis.) and measuring absorbency after 4 hr on a Biorad (Model 3550) plate reader at 490 nm with a 750 nm background absorbance screening, or by directly counting cells. The MTS assay utilized 10 wells/treatment. For manual counts, cells were harvested by trypsinization with 0.25% trypsin/0.53 mM EDTA, centrif uiged, and counted with a hemacytometer. Cell viability was determined by trypan blue staining. At least two aliquots per well, and 4-10 wells/treatment, were counted at each time for manual counting.
For some experiments, the rate of growth over a 96-hr period of time was calculated using linear regression analyses. The slopes of the lines (number of cells/hr) were compared by analysis of variance. All calculations were performed with GraphPad Prism software.

SCC-1 cells [2] = test: Growth curves of SCC-1 cells, cell proliferation (MTT) assay, absorbency
Description: Cells were counted using a standard MTT assay. In general, each data point represents the average absorbency taken from 10 wells/treatment; error bars represent the S.E.M.

SCC-1 cells [3] = test: DNA synthesis, BrdU incorporation into SCC-1 cells; format: cell-based, human; details: 3 days of drug treatment
Description: To examine DNA synthesis, SCC-1 cells were seeded onto 22 mm diameter coverglasses placed in 6-well plates (3×10^3 cells/coverglass). […] Three hours prior to fixing cells, 30 μM BrdU was added to cultures. At appropriate times, cells were rinsed, fixed in 10% neutral buffered formalin, and stained with antibodies to BrdU (Roche, Indianapolis, Ind.). The number of positive cells was recorded using fluorescence microscopy. At least 1000 cells/treatment at each time were counted.

SCC-1 cells [4] = test: Apoptosis, caspase-3 activity by flow cytometry in SCC-1 cells; format: cell-based, human; details: for percentage of caspase-3 positive cells: SCC-1, one day of treatment
Description: Caspase-3-FITC positive staining was used to characterize early stages of apoptosis (29). SCC-1 cells were seeded into 6-well plates and treated with drugs beginning 24 hr later; drugs and media were replaced daily. Cells were harvested after 1, 3 and 6 days of drug treatment, and prepared according to manufacturer's recommendations for FACS analysis (FACS cell sorter with a 15 mW argon ion laser at 488 nm; Becton, Dickinson and Company, Franklin Lakes, N.J.). […] Three samples from each treatment were analyzed at each time point. The percent gated cells recorded by flow cytometry was considered caspase positive.

[5] = SCC-1, 48 hr, OGF 10^−6 M and/or paclitaxel 10^−8 M
[6] = SCC-1, 72 hr, OGF 10^−6 M and/or paclitaxel 10^−8 M
[7] = SCC-1, 96 hr, OGF 10^−6 M and/or paclitaxel 10^−8 M
[8] = 48 h, paclitaxel 10^−7 M and/or OGF 10^−6 M
[9] = 72 h, paclitaxel 10^−7 M and/or OGF 10^−6 M
[10] = 96 h, paclitaxel 10^−7 M and/or OGF 10^−6 M

CC(=O)O[C@H]1C(=O)[C@@]2(C)[C@H]([C@H](OC(=O)c3ccccc3)[C@]3(O)C[C@H](OC(=O)[C@H](O)[C@@H](NC(=O)c4ccccc4)c4ccccc4)C(C)=C1C3(C)C)[C@]1(OC(C)=O)CO[C@@H]1C[C@@H]2O [paclitaxel]
Bmax, fmol/mg protein (OGFr): 27.8 ± 1.6 fmol/mg protein | inhibition at 0.01 µM (SCC-1 cells [1]; Homo sapiens, read-out: inhibition of cell growth relative to control levels): 8.8 to 26% | reduction of cell number from control levels (SCC-1 cells [1]; [5]): ~33% | reduction of cell number from control levels (SCC-1 cells [1]; [6]): 25% | reduction of cell number from control levels (SCC-1 cells [1]; [7]): 51% | rates of growth over the 4 day period (SCC-1 cells [1]; SCC-1): notably reduced from control values | difference in cell number between reversal group and group continuing drug exposure (SCC-1 cells [1]; SCC-1): did not differ | decrease in cell number from control levels (SCC-1 cells [2]; 24 h, paclitaxel 10^−7 M and/or OGF 10^−6 M): 14.2% | decrease in cell number from control levels (SCC-1 cells [2]; [8]): 34.4% | decrease in cell number from control levels (SCC-1 cells [2]; [9]): 58% | decrease in cell number from control levels (SCC-1 cells [2]; [10]): 70% | decrease in cell number from control levels (SCC-1 cells [2]; 96 h, paclitaxel 10^−8 M alone or with OGF 10^−6 M): 19.3% | decrease in the number of BrdU positive cells from control levels (SCC-1 cells [3]): 24% | fraction of SCCHN cells apoptotic (SCC-1 cells [4]; 6 days of drug exposure): over one-half | percentage of caspase-3 positive cells (SCC-1 cells [4]): negligible

[Met^5]-enkephalin [OGF]
Bmax, fmol/mg protein (OGFr): 27.2 ± 2.2 fmol/mg protein | reduction of cell number from control levels (SCC-1 cells [1]; SCC-1, MTS, 48-96 hr, OGF 10^−6 M alone or with carboplatin 10^−7 M): 8-10% | reduction of cell number from control levels (SCC-1 cells [1]; [5]): approximately 10% | reduction of cell number from control levels (SCC-1 cells [1]; [6]): 10% | reduction of cell number from control levels (SCC-1 cells [1]; [7]): 23% | decrease from control levels in absorbency readings (SCC-1 cells [1]; SCC-1, opioids 10^−6 M daily): 19% | rates of growth over the 4 day period (SCC-1 cells [1]; SCC-1): notably reduced from control values | difference in cell number between reversal group and group continuing drug exposure (SCC-1 cells [1]; SCC-1): 16% | decrease in cell number from control levels (SCC-1 cells [2]; [8]): 11.9% | decrease in cell number from control levels (SCC-1 cells [2]; [9]): 6.7% | decrease in cell number from control levels (SCC-1 cells [2]; [10]): 12.7% | decrease in the number of BrdU positive cells from control levels (SCC-1 cells [3]): 61% | percentage of caspase-3 positive cells (SCC-1 cells [4]): negligible
